Structures can show the parent of a compound that is named as a salt. Where two headings read alike, the source gives them in different places.
Key:
[1] = molecular target: PCP receptors; assay: Radioreceptor assay (3H-TCP displacement, rat brain membranes); conditions: read-out: Ki apparent, 1 nM 3H-TCP, whole rat brain membranes, 1 h incubation, Cheng & Prusoff
[2] = system: rat cerebral cortical membranes; conditions: Goldman et al, FEBS Lett.; cited from earlier work
[3] = system: NMDA; conditions: Berry et al, Eur. J. Pharm. 1983; binding and behavioral data; cited from earlier work
[4] = system: CAl region of the hippocampus; assay: Forebrain ischemia assay (carotid occlusion, CA1 hippocampal cell loss); assay type: in vivo, Mongolian gerbil; conditions: 30 mg/kg i.p. 30 min prior to carotid occlusion; 7 days after; n=6 vs 69 saline gerbils; Mann-Whitney U, p<0.005
Procedure: Male Mongolian gerbils, 50-70 gm, were used as subjects. Compound No. 4 (30 mg/kg) was injected i.p. 30 minutes prior to carotid occlusion into 6 gerbils. In preparation for surgical procedures, the animals were lightly anesthetized with methoxyflurane and placed upside down on a heated pad with the animal's snout within a nosecone. A mixture of 70 parts nitrous oxide, 30 parts oxygen and 0.5 part halothane was circulated through the nosecone to provide continuous anesthesia throughout the surgical procedure. A midline incision was made in the neck and the carotid arteries were exposed. A length of suture thread was placed under each carotid. The thread was then tightened around each carotid and pressure applied to the thread to insure flow was occluded. Flow was occluded for 4-5 minutes and then the thread was removed. The carotids were visually inspected to confirm that reflow had occurred. The wound was then closed with autoclips and the gerbils allowed to recover. Following surgery, the gerbils were kept alive for 7 days. They were anesthetized with 100 mg/kg sodium pentobarbital and perfused transcardially with saline (with heparin) followed by buffered formalin. The brain was removed, trimmed and prepared for histological processing. Sections (10 microns) were stained with thionin. […]

[5] = Behavioral assay (stereotyped behavior, PCP rating scale); assay type: in vivo, rat (male Sprague-Dawley)
Procedure: Compound No. 4 was tested by an in vivo assay which determined stereotypic behavior in rats treated with the compound. Male Sprague-Dawley rats weighing 200 to 250 g were used in the behavioral experiments. Each rat was used only once. Rats were anesthetized lightly with ether before a 20-gauge needle was used to make a hole in the rat's skull for i.c.v. injection of drugs at a later date. These rats were allowed to recover for at least 1 day before being used in the behavioral assays. On the day of the experiement, rats were placed individually into plastic rat cages and allowed at least 1 hr to acclimate before testing. Drugs were administered to rats in a random, single-blind fashion. Behavioral ratings were taken at 5-min intervals up to 1 hr after drug administration (i.p.) using the PCP rating scale as described by Sturgeon et al [Sturgeon, R. D., Fessler, R. G. and Meltzer, H. Y., "Behavioral Rating Scales for Accessing Phencyclidine-Induced Locomotor Activity. […] Dose-response curves for each treatment were determined at the time of maximal behavioral effect. […] ED50 values and dose-response curves were evaluated using a computerized Finney assay [Statistical Methods in Biological Assays, 2nd Edn., Hatner Pub. […] The ability of the Compound No. 4 to induce stereotyped behavior was assessed at 2.5, 5 and 10 minutes and thereafter every 5 min up to 1 hr after i.p. administration.

[6] = system: NMDA; conditions: Anis et al, Br. J. Pharmacol. 1983; cited from earlier work

| SMILES | Ki [1] | also measured |
| --- | --- | --- |
| Cc1cc(O)cc(C)c1C[C@H](N)C(=O)N1CC(C)Cc2ccccc21 (single isomer, unassigned) [Compound No. 6, 1-[-2S-amino-3-(4-hydroxy-2,6-dimethlyphenyl)-1-oxopropyl]-1,2,3,4-tetrahydro-3-methylquinoline, hydrochloride] | – | Ki ([1]; hydrochloride): 0.24 µM |
| Cc1cc(O)cc(C)c1C[C@H](N)C(=O)N1CC(C)Cc2ccccc21 (single isomer, unassigned) [Compound No. 7, 1-[2S-amino-3-(4-hydroxy-2,6-dimethylphenyl)-1-oxopropyl]-1,2,3,4-tetrahydro-3-methylquinoline, hydrochloride] | – | Ki ([1]; hydrochloride): 0.88 µM |
| CC1CCCN(C2(c3ccccc3)CCCCC2)C1 (single isomer, unassigned; (+)) [(+)-PCMP, (+)-1-(1-phenylcyclohexyl)-3-methylpiperidine] | – | inhibition of specific binding of [3H]PCP [2]: potent inhibitor; stereoselective effect over corresponding isomer in reducing the excitatory action of NMDA [3]: confirmed |
| N[C@@H](Cc1ccc(O)cc1)C(=O)N1CCCc2ccccc21 [Compound No. 1, 1-[2S-amino-3-(4-hydroxyphenyl)-1-oxopropyl]-1,2,3,4-tetrahydroquinoline, monohydrochloride] | 7.1 µM | – |
| Cc1cc(O)ccc1C[C@H](N)C(=O)N1CCCc2ccccc21 [Compound No. 2, 1-[2S-amino-3-(4-hydroxy-2-methylphenyl)-1-oxopropyl]-1,2,3,4-tetrahydroquinoline, monohydrochloride] | 0.8 µM | – |
| Cc1cc(O)cc(C)c1C[C@H](N)C(=O)N(C)c1ccccc1 [Compound No. 3, αS-amino-4-hydroxy-N,2,6-trimethyl-N-phenylbenzenepropanamide, monohydrochloride] | 2.6 µM | – |
| Cc1cc(O)cc(C)c1C[C@H](N)C(=O)N1CCCc2ccccc21 [Compound No. 4, 1-[2S-amino-3-(4-hydroxy-2,6-dimethylphenyl)-1-oxopropyl]-1,2,3,4-tetrahydroquinoline, monohydrochloride] | 0.016 µM | cell loss in CA1 [4]: significantly reduced; ED50 ([5]; Rattus norvegicus, ip, rats, PCP rating scale, at time of maximal effect, read-out: ED50 for induction of stereotyped behavior): 11 mg/kg |
| Cc1cc(O)cc(C)c1C[C@@H](N)C(=O)N1CCCc2ccccc21 [Compound No. 5, 1-[2R-amino-3-(4-hydroxy-2,6-dimethylphenyl)-1-oxopropyl]-1,2,3,4-tetrahydroquinoline, monohydrochloride] | 0.1 µM | – |
| Cc1cc(O)cc(C)c1C[C@H](N)C(=O)N1CCc2ccccc21 [Compound No. 8, 1-[2S-amino-3-(4-hydroxy-2,6-dimethylphenyl)-1-oxopropyl]-2,3-dihydro-1H-indole, monohydrochloride] | 1.45 µM | – |
| COc1ccc2c(c1)CCCN2C(=O)[C@@H](N)Cc1c(C)cc(O)cc1C [Compound No. 9, 1-[2S-amino-3-(4-hydroxy-2,6-dimethylphenyl)-1-oxopropyl]-1,2,3,4-tetrahydro-6-methoxyquinoline, monohydrochloride] | 4.1 µM | – |
| COc1cc(C)c(C[C@H](N)C(=O)N2CCCc3ccccc32)c(C)c1 [Compound No. 10, 1-[2S-amino-3-(4-methoxy-2,6-dimethylphenyl)-1-oxopropyl]-1,2,3,4-tetrahydroquinoline, monohydrochloride] | 4.5 µM | – |
| Cc1cc(O)cc(C)c1C[C@H](N)C(=O)N1CCCc2cccc(O)c21 [Compound No. 11, 1-[2S-amino-3-(4-hydroxy-2,6-dimethylphenyl)-1-oxopropyl]-1,2,3,4-tetrahydro-8-hydroxyquinoline, monohydrochloride] | 0.42 µM | – |
| Cc1cc(O)cc(C)c1C[C@H](N)C(=O)N1Cc2ccccc2CCc2ccccc21 [Compound No. 12, 5-[2S-amino-3-(4-hydroxy-2,6-dimethylphenyl)-1-oxopropyl]-5,6,11,12-tetrahydrodibenz[b,f]azocine, monohydrochloride] | 20 µM | – |
| c1ccc(C2(N3CCCCC3)CCCCC2)cc1 [PCP, Phencyclidine, reference compound] | 0.096 µM | time of peak effects (stereotyped behavior) ([5]; PCP 2.0-32 mg/kg i.p.): 15 min; reduction of excitatory effects of NMDA as compared to KA and QUIS [6]: reduce selectively the excitatory effects of NMDA |
| c1csc(C2(N3CCCCC3)CCCCC2)c1 [TCP, reference compound] | 0.02 µM | – |
| CC1CCC(c2ccccc2)(N2CCCCC2)CC1 (stereo not drawn) [cis-N-(1-phenyl-4-methylcyclohexyl)piperidine] | – | stereoselective effect over corresponding isomer in reducing the excitatory action of NMDA [3]: confirmed |
| CNC1(c2ccccc2Cl)CCCCC1=O (stereo not shown) [ketamine] | – | reduction of excitatory effects of NMDA as compared to KA and QUIS [6]: reduce selectively the excitatory effects of NMDA |
